Source: US20170182040A1, “EPITHELIAL ION CHANNEL (ENAC) BLOCKERS TO TREAT PSORIASIS” (The Board of Trustees of the Leland Stanford Junior …, priority 2014, published 2017)

Test system: K14 Rac1 animal model for psoriasis
Test: K14 V12 Rac1 mouse model of psoriasis, IP treatment
Type: in vivo
Conditions: IP 10 mg/kg every other day, 20 treatments
Description: FIG. 1: IP treatment with benzamil ameliorates phenotype in a mouse model of psoriasis. […] (c) IP efficacy was dose-dependent (2.1-1.4-0.7 mg/kg 20 treatments) and distinct from another ENAC blocker Amiloride (10 mg/kg).
FIG. 4: Benzamil alter Rac/STAT3 signaling, has effect on human psoriatic keratinocytes. […] Effects on Rac1 and PSTAT3 by Benzamil (10 uM) were validated in human primary psoriatic keratinocytes (Rac1-green, PSTAT3-red, DNA-blue) (b).
Mice overexpressing a K14 driven hyperactive V12 Rac1 mutant display clinical-histologic features mimicking human psoriasis including hyperkeratosis, erythema, Koebnerization, Auspitz sign, arthritis, onychodystrophy, marked psoriasiform hyperplasia, parakeratosis, Munro microabcesses, dilated rete ridge blood vessels and characteristic immune infiltrates. Rac1 mouse and human psoriasis skin show similar epidermal thickness, suprabasilar Ki67, and increased expression of IL 1, 6, 17, 23, 36/CCL 2, 5, 17, 20/TNFα/TGFα/CARD14/IFIH1/IRFs, NFKB, STAT3 activation/β defensins/Act1/IL17R. Transcriptional comparison of psoriasis susceptibility genes in Rac1 mouse and human psoriatic skin show marked overlap of both epidermal and immune pathways. […] See, for example Winge et al. Journal of Investigative Dermatology (2014) 134, S9-S27.
Benzamil attenuates Rac1-mediated psoriasis in a mouse model. In a K14 Rac1 animal model for psoriasis, Benzamil was injected ip every other day for 0, 10 and 20 injections of (2 mg/kg), or PBS.
In psoriasis keratinocytes, cytokine-mediated nuclear translocation of PSTAT3 and NFκB is reduced following Benzamil treatment.

N=C(N)NC(=O)c1nc(Cl)c(N)nc1N [Amiloride, amiloride]
Edema: reduced
Overall effect of IP treatment: Little or no effect
Psoriasiform hyperplasia (histology): retained
Rac1 activation, ki67 and TGFα expression and immune cell infiltration (CD3+/cd11c+): high
Scaling: did not have distinct effect
